Patent publication US20200303198A1, “POLISHING COMPOSITION AND POLISHING METHOD” (FUJIMI INCORPORATED, priority 2019, published 2020)

Assay: Solubility of biocide in water
Format: physicochemical
Conditions: in words

With O=C(OCc1ccccc1)c1ccc(O)cc1 [benzyl paraoxybenzoate] the solubility in water was “poor solubility in water”.
